Experimental data as given in US20240158446A1, “CYCLIC COMPOUND HAVING SELECTIVE INHIBITORY ACTION ON KRAS OVER HRAS AND NRAS” (CHUGAI SEIYAKU KABUSHIKI KAISHA, priority 2021, published 2024).
Where two headings read alike, the source gives them in different places. Where a SMILES comes first, the peptide text is derived from it. Bridges are numbered along the chain shown (N, C = ends). [ ]: non-standard residue; d: D form. The star is where a group is joined. hPhe(3-Cl-4-CF3) = N[C@@H](CCc1ccc(C(F)(F)F)c(Cl)c1)C(=O)O; NPrPhe(4-CF3) = CCCN[C@@H](Cc1ccc(C(F)(F)F)cc1)C(=O)O; NMeGly(cPent) = CN[C@H](C(=O)O)C1CCCC1; Pro(4,4-F2) = O=C(O)[C@@H]1CC(F)(F)CN1; Hyp = O=C(O)[C@@H]1C[C@@H](O)CN1; NMeD = CN[C@@H](CC(=O)O)C(=O)O; NMeL = CN[C@@H](CC(C)C)C(=O)O; Morpholide = C1CN(*)CCO1; Ac5c = NC1(C(=O)O)CCCC1; Ac4c = NC1(C(=O)O)CCC1; Sar = CNCC(=O)O

Legend:
[1] = target: GDP-bound NRAS wild-type protein (Homo sapiens, UniProt P01111); assay: Binding to NRAS by surface plasmon resonance (SPR), Single Cycle Kinetics; conditions: for NRAS/KRAS (ratio of KD value for NRAS to KD value for KRAS) / NRAS/KRAS (ratio of KD value with respect to NRAS to KD value with respect to KRAS): SPR, GDP-bound NRAS wild-type protein vs GDP-bound KRAS wild-type protein; for NRAS/KRAS (ratio of KD value with respect to GDP-bound NRAS wild-type protein to KD value with respect to KRAS): SPR KD ratio NRAS/KRAS, class symbols
GDP-bound NRAS wild-type protein, sequence (P01111 whole entry): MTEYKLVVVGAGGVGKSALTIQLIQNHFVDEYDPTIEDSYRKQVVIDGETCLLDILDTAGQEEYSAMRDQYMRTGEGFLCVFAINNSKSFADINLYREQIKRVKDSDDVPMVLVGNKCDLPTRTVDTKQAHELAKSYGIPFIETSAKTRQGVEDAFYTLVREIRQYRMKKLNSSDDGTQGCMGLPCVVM

[2] = target: GDP-bound KRAS wild-type protein (Homo sapiens, UniProt P01116); assay: Binding to KRAS by surface plasmon resonance (SPR), Single Cycle Kinetics; conditions: GDP-bound KRAS wild-type protein, read-out: KRAS KD
GDP-bound KRAS wild-type protein, sequence (P01116 whole entry): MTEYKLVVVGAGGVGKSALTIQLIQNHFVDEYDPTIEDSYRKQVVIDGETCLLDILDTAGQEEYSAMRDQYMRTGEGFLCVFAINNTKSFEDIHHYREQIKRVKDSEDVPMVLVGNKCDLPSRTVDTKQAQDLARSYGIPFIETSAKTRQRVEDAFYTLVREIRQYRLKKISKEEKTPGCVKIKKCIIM

[3] = target: GDP-bound HRAS wild-type protein (Homo sapiens, UniProt P01112); assay: Binding to HRAS by surface plasmon resonance (SPR), Single Cycle Kinetics; conditions: for HRAS/KRAS (ratio of KD value for HRAS to KD value for KRAS) / HRAS/KRAS (ratio of KD value with respect to HRAS to KD value with respect to KRAS): SPR, GDP-bound HRAS wild-type protein vs GDP-bound KRAS wild-type protein; for HRAS/KRAS (ratio of KD value with respect to GDP-bound HRAS wild-type protein to KD value with respect to KRAS): SPR KD ratio HRAS/KRAS, class symbols
GDP-bound HRAS wild-type protein, sequence (P01112 whole entry): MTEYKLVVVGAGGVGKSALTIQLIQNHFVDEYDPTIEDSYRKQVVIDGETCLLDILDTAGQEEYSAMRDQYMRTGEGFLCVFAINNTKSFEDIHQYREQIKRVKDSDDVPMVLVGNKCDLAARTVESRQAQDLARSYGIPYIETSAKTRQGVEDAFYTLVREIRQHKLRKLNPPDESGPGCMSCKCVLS

[4] = SPR Single Cycle Kinetics, 1:1 binding model
[5] = SPR, Single Cycle Kinetics, 1:1 binding model

| Kd ([2]; SPR, Single Cycle Kinetics) | Kd [2, 4] | SMILES | NRAS/KRAS (ratio of KD value for NRAS to KD value for KRAS) [1] | HRAS/KRAS (ratio of KD value for HRAS to KD value for KRAS) [3] | further results |
| --- | --- | --- | --- | --- | --- |
| 0.27 nM |  | CCO[C@@H]1C[C@H]2C(=O)NC3(CC(C)(C)C3)C(=O)N(C)[C@@H](C(CC)CC)C(=O)N(C)[C@H](C(=O)N(C)C)CC(=O)N(C)[C@@H](CC(C)C)C(=O)N[C@@H]([C@@H](C)CC)C(=O)N(C)CC(=O)N(C)[C@H]3C/C=C\CCN(C3=O)[C@@H](Cc3ccc(C(F)(F)F)cc3)C(=O)N(C)CC(=O)N[C@@H](CCc3ccc(C(F)(F)F)c(Cl)c3)C(=O)N2C1 [PP2132] | AA (a compound having 20 or more is denoted as AA) | A (a compound having 10 or more and less than 20 is denoted as A) |  |
|  | 0.4 nM | CCCN1C(=O)CN(C)C(=O)CN(C)C(=O)[C@H]([C@@H](C)CC)NC(=O)[C@H](CC(C)C)N(C)C(=O)C[C@@H](C(=O)N(C)C)NC(=O)[C@H](C2CCCC2)N(C)C(=O)C2(CCCC2)NC(=O)[C@@H]2CC(F)(F)CN2C(=O)[C@H](CCc2ccc(C(F)(F)F)c(Cl)c2)NC(=O)CN(C)C(=O)[C@@H]1Cc1ccc(C(F)(F)F)cc1 [PP0357] ([NMeL]I[Sar][Sar][NPrPhe(4-CF3)][Sar][hPhe(3-Cl-4-CF3)][Pro(4,4-F2)][Ac5c][NMeGly(cPent)]D-NMe2; lactam N-11) | B (a compound having 3 or more and less than 10 is denoted as B) | B (a compound having 3 or more and less than 10 is denoted as B) |  |
|  | 0.68 nM | CCO[C@@H]1C[C@H]2C(=O)NC3(CCC3)C(=O)N(C)[C@@H](C3CCCC3)C(=O)N(CCc3ccccc3)[C@H](C(=O)N(C)C)CC(=O)N(C)[C@@H](CC)C(=O)N[C@@H]([C@@H](C)CC)C(=O)N(C)CC(=O)N(C)[C@H]3CCCCN(C3=O)[C@@H](Cc3ccc(C(F)(F)F)cc3)C(=O)N(C)CC(=O)N[C@@H](CCc3cc(F)c(C(F)(F)F)c(F)c3)C(=O)N2C1 [PP0647] |  |  | NRAS/KRAS (ratio of KD value with respect to NRAS to KD value with respect to KRAS) [1]: C (A compound having a KD ratio of 0.1 or more and less than 3 is denoted as C); HRAS/KRAS (ratio of KD value with respect to HRAS to KD value with respect to KRAS) [3]: B (a compound having 3 or more and less than 10 is denoted as B) |
| 0.15 nM |  | CCO[C@@H]1C[C@H]2C(=O)NC3(CCC3)C(=O)N(C)[C@@H](C3CCCC3)C(=O)N(C)[C@H](C(=O)N(C)CC)CC(=O)N(C)[C@H]3CCCCCc4ccc(cc4)C[C@@H](C(=O)N(C)CC(=O)N[C@@H](CCc4ccc(C(F)(F)F)c(OC)c4)C(=O)N2C1)N1CC/C=C\C[C@@H](C1=O)N(C)C(=O)CN(C)C(=O)[C@H]([C@@H](C)CC)NC3=O [PP2118] | A (a compound having 10 or more and less than 20 is denoted as A) | B (a compound having 3 or more and less than 10 is denoted as B) |  |
|  | 0.4 nM | CCC(CC)[C@H]1C(=O)N(C)[C@H](C(=O)N2CCCC2)CC(=O)N(C)[C@H]2CCC/C=C/c3ccc(cc3)C[C@@H](C(=O)N(C)CC(=O)N[C@@H](CCc3ccc(Cl)c(Cl)c3)C(=O)N3CCC[C@H]3C(=O)NC3(CC(C)(C)C3)C(=O)N1C)N1CC/C=C\C[C@@H](C1=O)N(C)C(=O)CN(C)C(=O)[C@H]([C@@H](C)CC)NC2=O [PP2604] |  |  | NRAS/KRAS (ratio of KD value with respect to GDP-bound NRAS wild-type protein to KD value with respect to KRAS) [1]: AA (a compound having 20 or more is denoted as AA); HRAS/KRAS (ratio of KD value with respect to GDP-bound HRAS wild-type protein to KD value with respect to KRAS) [3]: A (a compound having 10 or more and less than 20 is denoted as A) |
|  | 1.7 nM | CCC[C@H]1C(=O)N[C@@H]([C@@H](C)CC)C(=O)N(C2CC2)CC(=O)N(C)[C@H]2C/C=C\CCN(C2=O)[C@@H](Cc2ccc(C(F)(F)F)cc2)C(=O)N(C)CC(=O)N[C@@H](CCc2cc(F)c(C(F)(F)F)c(F)c2)C(=O)N2C[C@H](OCC)C[C@H]2C(=O)NC2(CC(C)(C)C2)C(=O)N(C)[C@@H](CC2CC2)C(=O)N(C)[C@H](C(=O)N(C)C)CC(=O)N1C [PP2813] |  |  | NRAS/KRAS (ratio of KD value with respect to GDP-bound NRAS wild-type protein to KD value with respect to KRAS) [1]: AA (a compound having 20 or more is denoted as AA); HRAS/KRAS (ratio of KD value with respect to GDP-bound HRAS wild-type protein to KD value with respect to KRAS) [3]: A (a compound having 10 or more and less than 20 is denoted as A) |
|  |  | CCO[C@@H]1C[C@H]2C(=O)NC3(CCC3)C(=O)N(C)[C@@H](C3CCCC3)C(=O)N(C)[C@H](C(=O)N(C)CC)CC(=O)N(C)[C@@H](CC3CC3)C(=O)N[C@@H]([C@@H](C)CC)C(=O)N(C)CC(=O)N(C)[C@H]3C/C=C\CCN(C3=O)[C@@H](Cc3ccc(C(F)(F)F)cc3)C(=O)N(C)CC(=O)N[C@@H](CCc3cc(F)c(C(F)(F)F)c(F)c3)C(=O)N2C1 [PP1301] |  |  | NRAS/KRAS (ratio of KD value for NRAS to KD value for KRAS) ([1]; KD ratio class): A (a compound having 10 or more and less than 20 is denoted as A); Kd [2, 5]: 0.083 nM; HRAS/KRAS (ratio of KD value for HRAS to KD value for KRAS) ([3]; KD ratio class): A (a compound having 10 or more and less than 20 is denoted as A) |
|  |  | CC[C@H](C)[C@@H]1NC(=O)[C@H](CC(C)C)N(C)C(=O)C[C@@H](C(=O)N(C)C)N(C)C(=O)[C@H](C2CCCC2)N(C)C(=O)C2(CCC2)NC(=O)[C@@H]2[C@@H](OCC(F)F)CCN2C(=O)[C@H](CCc2cc(F)c(C(F)(F)F)c(F)c2)NC(=O)CN(C)C(=O)[C@H](Cc2ccc(C(F)(F)F)cc2)N2CC/C=C\C[C@@H](C2=O)N(C)C(=O)CN(C)C1=O [PP1534, (2S,8S,13S,14S,20S,23S,27S,30S,36S,38Z)-20-cyclopentyl-13-(2,2-difluoroethoxy)-8-[2-[3,5-difluoro-4-(trifluoromethyl)phenyl]ethyl]-27-isobutyl-N,N,4,19,22,26,32,35-octamethyl-30-[(1S)-1-methylpropyl]-3,6,9,15,18,21,25,28,31,34,42-undecaoxo-2-[[4-(trifluoromethyl)phenyl]methyl]spiro[1,4,7,10,16,19,22,26,29,32,35-undecazatricyclo[34.5.1.0^10,14]dotetracont-38-ene-17,1′-cyclobutane]-23-carboxamide] |  |  | NRAS/KRAS (ratio of KD value for NRAS to KD value for KRAS) ([1]; KD ratio class): AA (a compound having 20 or more is denoted as AA); Kd [2, 5]: 0.13 nM; HRAS/KRAS (ratio of KD value for HRAS to KD value for KRAS) ([3]; KD ratio class): A (a compound having 10 or more and less than 20 is denoted as A) |
|  | 0.066 nM | CCCN1C(=O)CN(C)C(=O)CN(C)C(=O)[C@H]([C@@H](C)CC)NC(=O)[C@H](CC(C)C)N(C)C(=O)C[C@@H](C(=O)N2CCOCC2)N(C)C(=O)[C@H](C2CCCC2)N(C)C(=O)C2(CCC2)NC(=O)[C@@H]2CC(F)(F)CN2C(=O)[C@H](CCc2ccc(C(F)(F)F)c(Cl)c2)NC(=O)CN(C)C(=O)[C@@H]1Cc1ccc(C(F)(F)F)cc1 [PP0207] ([NMeL]I[Sar][Sar][NPrPhe(4-CF3)][Sar][hPhe(3-Cl-4-CF3)][Pro(4,4-F2)][Ac4c][NMeGly(cPent)][NMeD]-Morpholide; lactam N-11) | B (a compound having 3 or more and less than 10 is denoted as B) | C (A compound having a KD ratio of 0.1 or more and less than 3 is denoted as C) |  |
|  | 0.29 nM | CCCN1C(=O)CN(C)C(=O)CNC(=O)[C@H]([C@@H](C)CC)NC(=O)[C@H](CC(C)C)N(C)C(=O)C[C@@H](C(=O)N(C)C)NC(=O)[C@H](C2CCCC2)N(C)C(=O)C2(CCCC2)NC(=O)[C@@H]2C[C@@H](OCC)CN2C(=O)[C@H](CCc2ccc(C(F)(F)F)c(Cl)c2)NC(=O)CN(C)C(=O)[C@@H]1Cc1ccc(C(F)(F)F)cc1 [PP0365] ([NMeL]IG[Sar][NPrPhe(4-CF3)][Sar][hPhe(3-Cl-4-CF3)][Hyp](Et)[Ac5c][NMeGly(cPent)]D-NMe2; lactam N-11) | B (a compound having 3 or more and less than 10 is denoted as B) | B (a compound having 3 or more and less than 10 is denoted as B) |  |
|  | 0.039 nM | CC[C@H](C)[C@@H]1NC(=O)[C@H](CC)N(C)C(=O)C[C@@H](C(=O)N(C)C)N(C)C(=O)[C@H](C2CCCC2)N(C)C(=O)C2(CCC2)NC(=O)[C@@H]2C[C@@H](N3CCC(F)(F)CC3)CN2C(=O)[C@H](CCc2cc(F)c(C(F)(F)F)c(F)c2)NC(=O)CN(C)C(=O)[C@H](Cc2ccc(C(F)(F)F)cc2)N2CCCC[C@@H](C2=O)N(C)C(=O)CN(C)C1=O [PP0656] |  |  | NRAS/KRAS (ratio of KD value with respect to NRAS to KD value with respect to KRAS) [1]: C (A compound having a KD ratio of 0.1 or more and less than 3 is denoted as C); HRAS/KRAS (ratio of KD value with respect to HRAS to KD value with respect to KRAS) [3]: C (A compound having a KD ratio of 0.1 or more and less than 3 is denoted as C) |
| 0.7 nM |  | CCO[C@@H]1C[C@H]2C(=O)NC3(CC(C)(C)C3)C(=O)N(C)[C@@H](C(CC)CC)C(=O)N(C)[C@H](C(=O)N(C)C)CC(=O)N(C)[C@@H](C(C)C)C(=O)N[C@@H]([C@@H](C)CC)C(=O)N(C)CC(=O)N(C)[C@H]3C/C=C\CCN(C3=O)[C@@H](Cc3ccc(C(F)(F)F)cc3)C(=O)N(C)CC(=O)N[C@@H](CCc3ccc(C(F)(F)F)c(Cl)c3)C(=O)N2C1 [PP2140] | AA (a compound having 20 or more is denoted as AA) | A (a compound having 10 or more and less than 20 is denoted as A) |  |
| 1.4 nM |  | CCO[C@@H]1C[C@H]2C(=O)N(C)C3(CCC3)C(=O)N(C)[C@@H](C(CC)CC)C(=O)N(C)[C@H](C(=O)N(C)C)CC(=O)N(C)[C@@H](COC)C(=O)N[C@@H]([C@@H](C)CC)C(=O)N(C)CC(=O)N(C)[C@H]3C/C=C\CCN(C3=O)[C@@H](CC3CCCCC3)C(=O)N(C)CC(=O)N[C@@H](CCc3ccc(C(F)(F)F)c(OC)c3)C(=O)N2C1 [PP2335] | A (a compound having 10 or more and less than 20 is denoted as A) | A (a compound having 10 or more and less than 20 is denoted as A) |  |
